Data from patent US20040167217A1, “Neuroprotective effects of polyphenolic compounds” (priority 2003, published 2004).
Entries after “also recorded” stand apart in the source; their conditions may differ.

Tests used:
HO-1 = HO-1 protein expression, Western blot, astrocytes; type: cell-based
Protocol: Type 1 astrocytes (DI TNC1) were purchased from the American Type Culture Collection (Manassas, VA) and cultured in Dulbecco's modified Eagle's medium containing 4.5 g/l glucose, 2 mM glutamine, 100 units/ ml penicillin, and 0.1 mg/ml streptomycin and supplemented with 10% fetal bovine serum. Cells were grown in 75-cm^2 flasks and maintained at 37° C. in a humidified atmosphere of air and 5% CO2. Confluent cells were exposed to various concentrations of curcumin, CAPE, or Curcumin-95. After each treatment (6 or 24 h), cells were harvested for the determination of heme oxygenase activity, HO-1 protein expression, and intracellular glutathione. Astrocytes growing in 24 wells were exposed to polyphenolic compounds, and cell viability was determined at 24 h. After treatment with curcumin, or CAPE, samples of astrocytes were also analyzed for HO-1 protein expression using a Western immunoblot technique described previously^18,19. Briefly, an equal amount of proteins (30 μg) for each sample was separated by SDS-polyacrylamide gel electrophoresis and transferred overnight to nitrocellulose membranes, and the non-specific binding of antibodies was blocked with 3% non-fat dried milk in PBS. Membranes were then probed with a polyclonal rabbit anti-HO-1 antibody (Stressgen) (1:1000 dilution in Tris-buffered saline, pH 7.4) for 2 h at room temperature. After three washes with PBS, blots were visualized using an amplified alkaline phosphatase kit from Sigma (Extra-3A), and the relative density of bands was analyzed by the use of an imaging densitometer (model GS-700; Bio-Rad, Herts, UK). Blots shown are representative of three independent experiments.

Male Wistar rats = assay: Lethality after intracerebroventricular T-BuOOH; type: in vivo, rat
Protocol: Male Wistar rats, weighing 140-180 g, were used for all experiments. Ten animals per experimental group were pre-administrated with curcumin, suitably suspended in distilled water, at the dose of 50 mg/kg per day, through oral intubation, for 7 days, before an intracerebroventricular injection of T-butylhydroperoxide (T-BuOOH) 2 μl of a 70% solution of phosphate buffered saline (PBS)^16. Lethality was assessed after administration of T-BuOOH at time points: 0, 2, 6, 12, and 24 h, and was expressed as the percentage of survival relative to the lethality observed in T-BuOOH plus Tween/saline vehicle (control) treated animals (FIG. 11A). After 30h the surviving animals were sacrificed and their brains quickly removed to investigate lipid peroxide formation as an index of oxidative challenge in neurons.
Male Wistar rats, weighing 140-180 g, were used for all experiments. […] Lethality was assessed after administration of T-BuOOH at time points: 0, 2, 6, 12, and 24 h, and was expressed as the percentage of survival relative to the lethality observed in T-BuOOH plus Tween/saline vehicle (control) treated animals (FIG. 12A). […]

cortical neurons = assay: Oligonucleosome formation in cortical neurons exposed to β-amyloid peptide (1-40); type: cell-based, rat; conditions: for apoptosis (oligonucleosome formation) induced by β-amyloid peptide (1-40): 20 μM β-amyloid peptide (1-40), parallel treatment
Protocol: (§1) Primary cultures of cortical neurons and cerebellar granule cells were prepared. In brief, cortical neurons were prepared from fetal brain from 17-day pregnant rat and cerebellar granule cells from 8-day old rats. Brain tissues were dissociated through trypsinization in 0.025% trypsin solution and trituration. Dissociated cells were collected through centrifugation and resuspended in standard medium containing: basal Eagle's medium containing 10% fetal bovine serum (FCS), 2 mM glutamine, genatmycin 0.05 mg/ml, and 25 mM KCI. Cells were plated at a density of 1.8×10^6 onto 35-mm dishes coated with 10 micrograms/ml ply-L-lysine.
An inhibitor of HO-1 activity may be used to determine whether or not the effects of the polyphenolic compounds or analogs thereof are induced through the heme oxygenase signaling pathway. To understand the relevance of the induction of the stress protein HO-1 on the neuroprotective effects afforded by curcumin we treated cortical neuron exposed to β-amyloid with curcumin ([…]) alone or in the presence of tinprotoporphirine IX (SnPP) 40 μM, a specific inhibitor of HO-1 activity. The same treatment was performed in cortical neurons exposed to GOX-induced cellular damage.

cerebellar granule cells = assay: Oligonucleosome formation (cell death detection ELISA), serum deprivation; type: cell-based, rat; conditions: for apoptosis (oligonucleosome formation) induced by the absence of FCS: curcumin 1, 5, 10, 25 and 50 μM
Protocol: as §1
To induce programmed cell death in […] granule cells, two different experimental well-established paradigms: serum deprivation and low K^+, were performed. In particular, neurons were cultured after their plating in serum free medium containing 25 mM KCI or in standard medium for 6 days and then agitating them in a medium containing 10% FCS and 5 mM KCI. In both of these paradigms, control cells were grown in medium containing 10% FCS and 25 mM KCI.
To induce apoptosis in cortical neurons, β-amyloid peptide (1-40), a molecule related to the pathogenesis of Alzheimer disease and a well known inducer of apoptosis was added.

[1] = tested on: Type 1 astrocytes (DI TNC1); assay: Cell viability of astrocytes, Alamar Blue; type: cell-based; conditions: 24 h; for cytotoxic action in the presence of NAC: 1 mM NAC, curcumin 100 μM, CAPE 50 μM and 100 μM; for cell viability and cell morphology: concentration not exceeding 30 μM
Protocol: Type 1 astrocytes (DI TNC1) were purchased from the American Type Culture Collection (Manassas, VA) and cultured in Dulbecco's modified Eagle's medium containing 4.5 g/l glucose, 2 mM glutamine, 100 units/ ml penicillin, and 0.1 mg/ml streptomycin and supplemented with 10% fetal bovine serum. Cells were grown in 75-cm^2 flasks and maintained at 37° C. in a humidified atmosphere of air and 5% CO2. Confluent cells were exposed to various concentrations of curcumin, CAPE, or Curcumin-95. After each treatment (6 or 24 h), cells were harvested for the determination of heme oxygenase activity, HO-1 protein expression, and intracellular glutathione. Astrocytes growing in 24 wells were exposed to polyphenolic compounds, and cell viability was determined at 24 h. Astrocytes were exposed to curcumin or CAPE for the indicated times, and cell viability was assessed with the use of an Alamar Blue assay according to manufacturer's instructions (Serotec; Oxford, UK) as reported previously^11. At the end of each treatment, cells were washed twice and incubated for an additional 5 h in complete medium containing 1% Alamar Blue solution. Optical density in each sample was measured using a plate reader (Molecular Devices; Crawley, UK). The intensity of the color developed in the medium is proportional to the viability of cells, which is calculated as the difference in absorbance between 570 and 600 nm and expressed as percentage of control.

COc1cc(C=CC(=O)CC(=O)C=Cc2ccc(O)c(OC)c2)ccc1O [curcumin, 1,7-bis[4-Hydroxy-3-methoxyphenyl]-1,6-heptadiene-3,5-dione]
HO-1 protein expression (HO-1; 50-100 μM): failed to increase HO-1 expression | HO-1 protein expression (HO-1; 6 h, 15 and 30 μM): marked up-regulation of HO-1 protein | HO-1 protein expression (HO-1; 24 h after treatment): over-expression of HO-1 was also found | animals that died after T-BuOOH (Male Wistar rats; 50 mg/kg per day oral for 7 days before i.c.v. T-BuOOH, over 24 h (T-BuOOH alone 60%)): 20% | apoptosis (oligonucleosome formation) induced by β-amyloid peptide (1-40) (cortical neurons): able to overcome much of the cellular damage caused by β-amyloid; also recorded: dramatically protect the cells against apoptosis | apoptosis induced by β-amyloid in the presence of HO-1 inhibitor SnPP (cortical neurons; curcumin plus SnPP 40 μM): only able to partially reduce the apoptotic effects | concentration with strongest / most effective anti-apoptotic effect (cerebellar granule cells): 25 µM | apoptosis (oligonucleosome formation) induced by the absence of FCS (cerebellar granule cells): significantly reduced apoptosis | reduction in cell viability ([1]; 50 μM): 20% | reduction in cell viability ([1]; 100 μM): 63% | cytotoxic action in the presence of NAC [1]: significantly attenuated the cytotoxic action | cell viability and cell morphology [1]: fully preserved

O=C(/C=C/c1ccc(O)c(O)c1)OCCc1ccccc1 [CAPE, Caffeic acid phenethyl ester]
concentration of maximal HO-1 protein expression (HO-1): 30 µM | HO-1 protein levels (HO-1; low concentrations 15-50 μM): substantial increase | protection against T-BuOOH induced lethality (Male Wistar rats; 20 mg/kg per day oral for 7 days before i.c.v. T-BuOOH): marked protection | apoptosis (oligonucleosome formation) induced by β-amyloid peptide (1-40) (cortical neurons): strong dose-dependent anti-apoptotic effect | concentration most effective in protecting from apoptosis (cortical neurons; β-amyloid): 25 µM | concentration with strongest / most effective anti-apoptotic effect (cerebellar granule cells): 25 µM | apoptosis (oligonucleosome formation) induced by the absence of FCS (cerebellar granule cells): strong dose-dependent anti-apoptotic effect | reduction in cell viability ([1]; 50 μM): 61% | reduction in cell viability ([1]; 100 μM): 78% | cytotoxic action in the presence of NAC [1]: significantly attenuated the cytotoxic action | cell viability and cell morphology [1]: fully preserved
